The source of these data is patent US12606533B2, “3-phenylpropylamine derivative” (DAIICHI SANKYO COMPANY, LIMITED, priority 2023, dated 2026).

The subject of one assay is CYP21A2. Description: Changes in SF1 target gene expression for NCI-H295R: CYP21A2 mRNA (qPCR). It is filed as cell-based. As to conditions: Homo sapiens, NCI-H295R cells, 24 hr. The procedure: (§1) NCI-H295R cells were cultured in a 5% CO2 incubator at 37° C. using DMEM/F12 medium (Thermo Fisher Scientific Inc.) containing 2.5% Nu-Serum (registered trademark) Growth Medium Supplement (Corning) and 1% Corning ITS+ Premix Universal Culture Supplement (Corning). The DMSO solution of each compound was serially diluted with DMSO using a D300e Digital Dispenser (TECAN), and the compounds were added to a 96-well plate (FALCON). NCI-H295R cells were seeded at 1×10^4 cells/50 μL/well on the 96-well plate containing the compounds added thereto, and cultured for 24 hr in a 5% CO2 incubator at 37° C. The final DMSO concentration in the medium was adjusted to 0.1% (v/v) in all cases, and the concentration range of the compounds was set to 1000 nM to 0.32 nM with a common ratio […]. After the completion of culture, the medium was discarded, 50 μL/well of chilled D-PBS (Sigma Aldrich) was added to wash the cells, and D-PBS was discarded. After washing, 25 μL/well of Cells-to-CT (registered trademark) Bulk Lysis Reagents (Thermo Fisher Scientific, Inc.) was added to the wells, the mixture was stirred for 5 min with a plate mixer, and 2.5 μL/well of the reaction quenching liquid was added to prepare cell lysate. The cell lysate was dispensed into a 96-well plate (Corning) at 10 μL/well, and 40 μL/well of Cells-to-CT Bulk RT Reagents (Thermo Fisher Scientific, Inc.) was added. A reverse transcription reaction was performed at 37° C. for 50 min using a thermal cycler, and the reverse transcriptase was inactivated by heating at 95° C. for 5 min, and then stored at 10° C. PrimeTime (registered trademark) Gene Expression Master Mix (Integrated DNA Technologies), the target genes CYP11A1, CYP17A1, CYP21A2, or STAR, and the control gene ACTB PrimeTime (registered trademark) qPCR Probe Assays (Integrated DNA Technologies), and Nuclease free water were mixed at a ratio of 20:1:1:10 to prepare a PrimerProbe mix. The prepared PrimerProbe mix was added to a 384-well plate at 8 μL/well, and the cDNA obtained by reverse transcription was added at 2 μL/well. Real-Time PCR was performed under fast cycling conditions (95° C. for 3 min, followed by 40 cycles of 95° C. for 5 seconds and 62° C. for 30 seconds) to measure the fluorescent signal. The obtained data was analyzed using GraphPad Prism9 (GraphPad Software Inc.) to calculate the concentration (IC50 value) that reduces the mRNA expression level by 50%. The IC50 values (unit: nM) for CYP11A1, CYP17A1, CYP21A2, and STAR, of the compounds corresponding to each Example number are shown in Table 94.
For orientation: Quantitative PCR measures a nucleic acid by following its amplification.

Another assay deals with CYP17A1. Description: Changes in SF1 target gene expression for NCI-H295R: CYP17A1 mRNA (qPCR). It is filed as cell-based. The following applies: Homo sapiens, NCI-H295R cells, 24 hr. The procedure:
as §1

For the next assay, the target named is SF1-LBD (Homo sapiens, UniProt Q13285). Nature of the assay: Inhibitory activity against binding of DAX1 to SF1-LBD (AlphaLISA). The following applies: inhibition of binding of DAX1 peptide to His-SF1-LBD, read-out: cell-free SF1 IC50. Here is the method:
The binding activity of each compound to the SF-1 ligand binding domain (LBD) was evaluated using the binding inhibitory activity of each compound against binding of DAX1 to SF1-LBD as an index. 100 nM His-SF1-LBD, 2 nM Biotin-DAX1 peptide (Biotin-[…]-NH2) and each compound (8-point i1 dilution series with common ratio 2 from final concentration 2 μM) were mixed in assay buffer [25 mM HEPES (pH 7.5), 100 mM NaCl, 0.1% BSA, 0.01% CHAPS, 1 mM DTT] and reacted at room temperature for 30 min. Anti-6×His AlphaLISA Acceptor beads and Streptavidin-coated AlphaScreen Donor beads were mixed to a final concentrations of 5 μg/ml and 10 μg/ml, respectively, and reacted in the dark at room temperature for 60 min. AlphaLISA signals were detected using a multimode plate reader (EnVision Xcite, PerkinElmer). The binding rate of DAX1 peptide to SF1 was calculated from the luminescence amount (C) of the compound-free group and the luminescence amount (T) of the compound-added group, based on the following formula.
The DAX1 peptide binding rate at each concentration was analyzed using GraphPad Prism6 (GraphPad Software Inc.) to calculate the concentration (IC50 value) of each compound that inhibits 50% of the binding of DAX1 to SF1-LBD.
(In general: In Alpha technology, singlet oxygen from a donor bead excites a nearby acceptor bead.)

In another assay the test system is CYP11A1. Description: Changes in SF1 target gene expression for NCI-H295R: CYP11A1 mRNA (qPCR). It is filed as cell-based. The following applies: Homo sapiens, NCI-H295R cells, 24 hr. Here is the method:
as §1

The subject of a further assay is STAR. Nature of the assay: Changes in SF1 target gene expression for NCI-H295R: STAR mRNA (qPCR). It is filed as cell-based. As to conditions: Homo sapiens, NCI-H295R cells, 24 hr. The procedure:
as §1

The term IC50 denotes the midpoint of a concentration-inhibition curve.

Structures are written as SMILES.

SF1-LBD, sequence (Q13285 222-459 limits assumed): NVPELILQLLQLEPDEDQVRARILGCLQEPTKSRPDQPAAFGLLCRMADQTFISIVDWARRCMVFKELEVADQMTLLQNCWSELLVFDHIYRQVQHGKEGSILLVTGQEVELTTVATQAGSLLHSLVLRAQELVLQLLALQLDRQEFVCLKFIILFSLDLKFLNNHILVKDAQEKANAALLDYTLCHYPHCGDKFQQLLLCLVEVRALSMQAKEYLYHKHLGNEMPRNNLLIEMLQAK

In the case of `COc1ccc(C2(CCN(Cc3ccc(O[C@H]4CC[C@H](C(=O)O)CC4)cc3)c3ccccn3)CCOC(C)(C)C2)cc1` (stereo partly drawn) [Example I2, trans-4-(4-{[{2-[4-(4-Methoxyphenyl)-2,2-dimethyltetrahydro-2H-pyran-4-yl]ethyl}(pyridin-2-yl)amino]methyl}phenoxy)cyclohexanecarboxylic acid], the IC50 in the assay on CYP21A2 worked out at 52 nM; in the assay with CYP17A1 it was 117 nM; on SF1-LBD it was 47 nM; with CYP11A1, 29 nM; with STAR, 55 nM.

`COc1ccc(C2(CCN(Cc3ccc(Oc4ccc(CC(C)(C)C(=O)O)cc4)cc3)C(=O)C(C)(C)C)CCOC(C)(C)C2)cc1` (stereo not drawn) [Example J4, 3-[4-(4-{[(2,2-Dimethylpropanoyl){2-[4-(4-methoxyphenyl)-2,2-dimethyltetrahydro-2H-pyran-4-yl]ethyl}amino]methyl}phenoxy)phenyl]-2,2-dimethylpropanoic acid]: the half-inhibitory concentration (IC50) in the assay on CYP21A2 came out at 8.1 nM; with CYP17A1, 70 nM; on SF1-LBD it was 39 nM; in the assay with CYP11A1, 4.1 nM; with STAR, 14 nM.

As to `COc1ccc(C2(CCN(CCC(F)(F)F)Cc3ccc(O[C@H]4CC[C@H](CC(=O)O)CC4)cc3)CCOC(C)(C)C2)cc1` (stereo partly drawn) [Example K5, [Trans-4-(4-{[{2-[4-(4-methoxyphenyl)-2,2-dimethyltetrahydro-2H-pyran-4-yl]ethyl}(3,3,3-trifluoropropyl)amino]methyl}phenoxy)cyclohexyl]acetic acid], the IC50 is 28 nM in the assay on CYP21A2; 141 nM with CYP17A1; 29 nM on SF1-LBD; 12 nM with CYP11A1; 47 nM in the assay on STAR.

As to `CNc1ccc(C2(CCN(Cc3ccc(O[C@H]4CC[C@H](C(=O)O)CC4)cc3)C(=O)C(C)(C)C)CCOC(C)(C)C2)cc1` (stereo partly drawn) [Example L2, Trans-4-(4-{[(2-{2,2-dimethyl-4-[4-(methylamino)phenyl]tetrahydro-2H-pyran-4-yl}ethyl) (2,2-dimethylpropanoyl)amino]methyl}phenoxy)cyclohexanecarboxylic acid], the IC50 with CYP21A2 amounted to 46 nM; with CYP17A1 it was 238 nM; on SF1-LBD, 32 nM; in the assay with CYP11A1, 17 nM; with STAR, 83 nM.

Consider `COc1ccc([C@]2(CCN(Cc3ccc(O[C@H]4CC[C@H](C(=O)O)CC4)cc3)CC(C)(C)C(F)(F)F)CCOC(C)(C)C2)cc1` [Example M5, Trans-4-(4-{[{2-[(4R)-4-(4-methoxyphenyl)-2,2-dimethyltetrahydro-2H-pyran-4-yl]ethyl)(3,3,3-trifluoro-2,2-dimethylpropyl)amino]methyl}phenoxy)cyclohexanecarboxylic acid], for which the IC50 in the assay with CYP21A2 amounted to 4.3 nM; in the assay with CYP17A1, 13 nM; on SF1-LBD, 18 nM; with CYP11A1 it was 2.8 nM; in the assay on STAR, 3.9 nM.

Consider `COc1ccc(C2(CCN(Cc3ccc(Oc4ccc(N=S(C)(C)=O)cc4)cc3)C(=O)C(C)(C)C)CCOC(C)(C)C2)cc1` (stereo not drawn) [Example N2], for which the IC50 in the assay on CYP21A2 was 30 nM; in the assay on CYP17A1 it was 113 nM; on SF1-LBD it was 41 nM; in the assay with CYP11A1, 19 nM; in the assay on STAR, 39 nM.

As to `COc1ccc(C2(CCN(Cc3ccc(O[C@H]4CC[C@H](C(=O)O)CC4)cc3)c3ncc(F)cn3)CCOC(C)(C)C2)cc1` (stereo partly drawn) [Example O2, Trans-4-(4-{[(5-fluoropyrimidin-2-yl) {2-[4-(4-methoxyphenyl)-2,2-dimethyltetrahydro-2H-pyran-4-yl]ethyl}amino]methyl}phenoxy)cyclohexanecarboxylic acid], the IC50 turned out to be 82 nM in the assay with CYP21A2; 211 nM in the assay with CYP17A1; 36 nM on SF1-LBD; 35 nM with CYP11A1; 75 nM in the assay with STAR.

For `COc1ccc([C@]2(CCN(Cc3ccc(Oc4ccc(C(C)C(=O)O)cc4)cc3)CC(C)(C)C(F)(F)F)CCOC(C)(C)C2)cc1` (stereo partly drawn) [Example P3, 2-[4-(4-{[{2-[(4R)-4-(4-Methoxyphenyl)-2,2-dimethyltetrahydro-2H-pyran-4-yl]ethyl}(3,3,3-trifluoro-2,2-dimethylpropyl)amino]methyl}phenoxy)phenyl]propanoic acid], the IC50 with CYP21A2 worked out at 9.8 nM; in the assay on CYP17A1, 137 nM; on SF1-LBD, 30 nM; in the assay with CYP11A1 it was 4.4 nM; in the assay with STAR, 19 nM.

As to `COc1ccc(C2(CCN(Cc3ccc(C(=O)c4ccc(CCC(=O)O)cc4)c(C)c3)C(=O)C(C)(C)C(F)(F)F)CCOC(C)(C)C2)cc1` (stereo not drawn) [Example Q4, 3-[4-(4-{[{2-[4-(4-Methoxyphenyl)-2,2-dimethyltetrahydro-2H-pyran-4-yl]ethyl}(3,3,3-trifluoro-2,2-dimethylpropanoyl)amino]methyl}-2-methylbenzoyl)phenyl]propanoic acid], the half-inhibitory concentration (IC50) in the assay on CYP21A2 stood at 19 nM; in the assay with CYP17A1 it was 189 nM; on SF1-LBD, 35 nM; with CYP11A1 it was 8.5 nM; in the assay with STAR, 44 nM.

As for `CCO[C@@H](Cc1ccc(Oc2ccc(CN(CC[C@@]3(c4ccc(OC)cc4)CCOC(C)(C)C3)CC(C)(C)C(F)(F)F)cc2)cc1)C(=O)O` [Example R3, (2S)-2-Ethoxy-3-[4-(4-{[{2-[(4R)-4-(4-methoxyphenyl)-2,2-dimethyltetrahydro-2H-pyran-4-yl]ethyl}(3,3,3-trifluoro-2,2-dimethylpropyl)amino]methyl}phenoxy)phenyl]propanoic acid], the IC50 in the assay with CYP21A2 is 4.3 nM; with CYP17A1 it was 28 nM; on SF1-LBD, 27 nM; in the assay on CYP11A1, 3.3 nM; with STAR it was 6.2 nM.

For `COc1ccc([C@]2(CCN(Cc3ccc(O[C@H]4CC[C@H](CC(=O)O)CC4)nc3)CC(C)(C)C(F)(F)F)CCOC(C)(C)C2)cc1` [Example S4, {Trans-4-[(5-{[{2-[(4R)-4-(4-methoxyphenyl)-2,2-dimethyltetrahydro-2H-pyran-4-yl]ethyl}(3,3,3-trifluoro-2,2-dimethylpropyl)amino]methyl}pyridin-2-yl)oxy]cyclohexyl)acetic acid], the IC50 is 2.2 nM in the assay on CYP21A2; 12 nM with CYP17A1; 22 nM at SF1-LBD; 1.2 nM in the assay on CYP11A1; 3.2 nM in the assay with STAR.

Consider `COc1ccc([C@]2(CCN(Cc3ccc(O[C@H]4CC[C@H](CC(=O)O)CC4)cc3)CC(C)(C)C(F)(F)F)CCOC(C)(C)C2)cc1` [Example T2, [Trans-4-(4-{[{2-[(4R)-4-(4-methoxyphenyl)-2,2-dimethyltetrahydro-2H-pyran-4-yl]ethyl}(3,3,3-trifluoro-2,2-dimethylpropyl)amino]methyl}phenoxy)cyclohexyl]acetic acid], for which the half-maximal inhibitory concentration (IC50) with CYP21A2 turned out to be 2.4 nM; in the assay on CYP17A1, 24 nM; on SF1-LBD, 26 nM; with CYP11A1, 1.2 nM; in the assay with STAR, 4.1 nM.
